# Results published in ChEMBL document CHEMBL6096670, “Design, synthesis and biological evaluation of novel β-carbolines as antitumor agents via targeting autophagy in colorectal cancer” (Eur J Med Chem, 2025).
# Activity calls are given as the source filed them. The calls are words filed in the database; no cut-off is given here.
# Assays:
# [1] = test system: HCT-116; test: Effect on C-PARP expression level in Bax knockout human HCT-116 cells at 1 to 2 uM incubated for 24 hrs by Western blot analysis; type: functional, cell-based; conditions: dose 1-2 µM
# [2] = test system: A-375; test: Antiproliferative activity against human A-375 cells assessed as inhibition of cell growth incubated for 48 hrs by MTT assay; type: functional, cell-based; conditions: A-375, 48 h
# [3] = test system: HCT-116; test: Inhibition of cell migration in human HCT-116 cells at 1 to 2 uM incubated for 24 hrs by crystal violet staining based transwell migration assay; type: functional; conditions: dose 1-2 µM
# [4] = test system: HCT-116; test: Induction of apoptosis in human HCT-116 assessed as necrotic cells at 2 uM incubated for 24 hrs Annexin V FITC/PI double staining based flow cytometry (reference value: 0.94 %); type: functional
# [5] = test system: HCT-116; test: Induction of apoptosis in human HCT-116 cells assessed as effect on cleaved caspase-8 expression level at 0.5 to 2 uM incubated for 24 hrs by Western blot analysis; type: functional, cell-based; conditions: dose 0.5-2 µM
# [6] = test system: CT26; test: Antitumor activity against mouse CT26 cells implanted in female BALB/c mouse assessed as reduction in Ki67 expression at 1 to 2 mg/kg administrated once every 3 days for 18 days by immunohistochemistry analysis; type: functional, organism-based; conditions: dose 1-2 mg/kg, time 18.0 day
# [7] = test system: HCT-116; test: Induction of morphological changes in human HCT-116 cells assessed as appearance of rounder cells at 0.5 to 2 uM by microscopic analysis; type: functional, cell-based; conditions: dose 0.5-2 µM
# [8] = test system: HCT-116; test: Induction of apoptosis in human HCT-116 assessed as necrotic cells at 1 uM pretreated with Z-VAD-FMK for 30 mins followed by compound addition and measured after 24 hrs by Annexin V-FITC/PI double staining based flow cytometry (reference value: 0.84 %); type: functional
# [9] = test system: HCT-116; test: Induction of apoptosis in human HCT-116 assessed as viable cells at 1 uM pretreated with Z-VAD-FMK for 30 mins followed by compound addition and measured after 24 hrs by Annexin V-FITC/PI double staining based flow cytometry (reference value: 90.8%); type: functional; conditions: read-out: Activity
# [10] = test system: HCT-116; test: Effect on apoptosis pathway related genes expression in human HCT-116 cells at 1 uM incubated for 24 hrs by GSVA enrichment analysis; type: functional, cell-based
# [11] = test system: HCT-116; test: Induction of apoptosis in human HCT-116 assessed as early apoptotic cells at 2 uM pretreated with Z-VAD-FMK for 30 mins followed by compound addition and measured after 24 hrs by Annexin V-FITC/PI double staining based flow cytometry (reference value: 0.95%); type: functional
# [12] = test system: HCT-116; test: Effect on cleaved caspase 3 expression level in p53 knockout human HCT-116 cells at 1 to 2 uM incubated for 24 hrs by Western blot analysis; type: functional, cell-based; conditions: dose 1-2 µM
# [13] = test system: HCT-116; test: Induction of apoptosis in human HCT-116 cells assessed as effect on cleaved PARP expression level at 0.5 to 2 uM incubated for 24 hrs by Western blot analysis; type: functional, cell-based; conditions: dose 0.5-2 µM
# [14] = Toxicity in female BALB/c mouse implanted with mouse CT26 cells assessed as change in spleen morphology at 1 to 2 mg/kg administrated once every 3 days for 18 days by H&E staining based analysis; type: organism-based; conditions: in vivo, 432 h, dose 1-2 mg/kg, time 18 day
# [15] = test system: MCF7; test: Antiproliferative activity against human MCF7 cells assessed as inhibition of cell growth incubated for 48 hrs by MTT assay; type: functional, cell-based; conditions: MCF7, 48 h
# [16] = Toxicity in female BALB/c mouse implanted with mouse CT26 cells assessed as change in lung morphology at 1 to 2 mg/kg administrated once every 3 days for 18 days by H&E staining based analysis; type: organism-based; conditions: in vivo, 432 h, dose 1-2 mg/kg, time 18 day
# [17] = test system: HCT-116; test: Effect on PARP expression level in p53 knockout human HCT-116 cells at 1 to 2 uM incubated for 24 hrs by Western blot analysis; type: functional, cell-based; conditions: dose 1-2 µM
# [18] = test system: HCT-116; test: Antiproliferative activity against ATG7 knockout human HCT-116 cells assessed as inhibition of cell viability incubated for 24 hrs by CCK8 assay; type: functional, cell-based; conditions: HCT-116, 24 h
# [19] = test system: HCT-116; test: Induction of apoptosis in human HCT-116 assessed as viable cells at 1 uM incubated for 24 hrs Annexin V FITC/PI double staining based flow cytometry (Rvb =90.0%); type: functional; conditions: read-out: Activity
# [20] = test system: HCT-116; test: Induction of apoptosis in human HCT-116 assessed as necrotic cells at 1 uM incubated for 24 hrs Annexin V FITC/PI double staining based flow cytometry (reference value: 0.94 %); type: functional
# [21] = test system: SK-OV-3; test: Antiproliferative activity against human SK-OV-3 cells assessed as inhibition of cell growth incubated for 48 hrs by MTT assay; type: functional, cell-based; conditions: SK-OV-3, 48 h
# [22] = test system: CT26; test: Antitumor activity against mouse CT26 cells implanted in female BALB/c mouse assessed as reduction in tumor weight at 2 mg/kg administrated once every 3 days for 18 days relative to control; type: functional; set-up: scale not given: the % may be the effect or the level left; conditions: time 18 day
# [23] = test system: HCT-116; test: Induction of autophagy in human HCT-116 cells transfected with tandem mRFP-GFP-LC3 plasmid assessed as reduction in p62 expression by Western blot analysis; type: functional, cell-based; conditions: time 3-48 hrs
# [24] = test system: HCT-116; test: Upregulation of autophagy pathway related genes expression in human HCT-116 cells at 1 uM incubated for 24 hrs by heat map analysis; type: functional, cell-based
# [25] = test system: HCT-116; test: Induction of autophagy in human HCT-116 cells transfected with tandem mRFP-GFP-LC3 plasmid assessed as increase in LC3-II accumulation by Western blot analysis; type: functional, cell-based; conditions: time 3-48 hrs
# [26] = test system: HCT-116; test: Inhibition of colony formation in wildtype human HCT-116 cells assessed as reduction in number of colonies at 1 to 4 uM measured after 24 hrs by crystal violet staining based analysis; type: functional, cell-based; conditions: dose 1-4 µM
# [27] = test system: HCT-116; test: Induction of autophagy in ATG5 knockout human HCT-116 cells assessed as increase in LC3-II expression at 1 to 2 uM incubated for 24 hrs by Western blot analysis; type: functional, cell-based; conditions: dose 1-2 µM
# [28] = test system: HCT-116; test: Induction of apoptosis in human HCT-116 assessed as necrotic cells at 2 uM pretreated with Z-VAD-FMK for 30 mins followed by compound addition and measured after 24 hrs by Annexin V-FITC/PI double staining based flow cytometry (reference value: 0.84%); type: functional
# [29] = test system: HCT-116; test: Induction of apoptosis in human HCT-116 assessed as early apoptotic cells at 1 uM incubated for 24 hrs Annexin V FITC/PI double staining based flow cytometry (reference value: 1.07 %); type: functional
# [30] = test system: HCT-116; test: Effect on caspase 3 expression level in Bax knockout human HCT-116 cells at 1 to 2 uM incubated for 24 hrs by Western blot analysis; type: functional, cell-based; conditions: dose 1-2 µM
# [31] = test system: HepG2; test: Antiproliferative activity against human HepG2 cells assessed as inhibition of cell growth incubated for 48 hrs by MTT assay; type: functional, cell-based; conditions: HepG2, 48 h
# [32] = Toxicity in female BALB/c mouse implanted with mouse CT26 cells assessed as change in kidney morphology at 1 to 2 mg/kg administrated once every 3 days for 18 days by H&E staining based analysis; type: organism-based; conditions: in vivo, 432 h, dose 1-2 mg/kg, time 18 day
# [33] = test system: HCT-116; test: Induction of autophagy in human HCT-116 cells transfected with tandem mRFP-GFP-LC3 plasmid assessed as reduction in p62 expression incubated for 24 hrs by Western blot analysis; type: functional, cell-based; conditions: dose 0.5-20 µM
# [34] = Toxicity in female BALB/c mouse implanted with mouse CT26 cells assessed as change in liver morphology at 1 to 2 mg/kg administrated once every 3 days for 18 days by H&E staining based analysis; type: organism-based; conditions: in vivo, 432 h, dose 1-2 mg/kg, time 18 day
# [35] = test system: HCT-116; test: Induction of autophagy pathway in human HCT-116 cells at 1 uM incubated for 24 hrs by GSEA analysis; type: functional, cell-based
smiles,measurement,setting,value
CCN(CC)CCCNCc1cc2c3ccccc3n(CCCc3ccccc3)c2c(CNCCCN(CC)CC)n1,Activity,[1],inactive
same,IC50,[2],4.45 µM
same,inhibition,[3],Active
same,Activity,[4],2.86%
same,Activity,[5],inactive
same,Activity,[6],Active
same,Activity,[7],Active
same,Activity,[8],2.2%
same,viability at 1 µM,[9],83.7%
same,Activity,[10],inactive
same,Activity,[11],2.28%
same,Activity,[12],inactive
same,Activity,[13],inactive
same,Activity,[14],Non-toxic
same,IC50,[15],4.46 µM
same,Activity,[16],Non-toxic
same,Activity,[17],inactive
same,IC50,[18],6.49 µM
same,viability at 1 µM,[19],84.6%
same,Activity,[20],2.02%
same,IC50,[21],4.26 µM
same,Activity,[22],87.3%
same,Activity,[23],Time-dependent-effect
same,Activity,[24],Active
same,Activity,[25],Time-dependent-effect
same,inhibition,[26],Active
same,Activity,[27],inactive
same,Activity,[28],1.8%
same,Activity,[29],2.19%
same,Activity,[30],inactive
same,IC50,[31],4.58 µM
same,Activity,[32],Non-toxic
same,Activity,[33],Dose-dependent-effect
same,Activity,[34],Non-toxic
same,Activity,[35],Active
